Assay in all cases: growth of human tumour cells (NCI), 48 h
Test [1] has as its system UO-31 renal.
Test [2] concerns OVCAR-3 ovarian.
The subject of test [3] is U251 CNS.
The test system of test [4] is HCC-2998 colon.
For test [5], the system named is NCI-H522 lung.
Test [6] deals with NCI-H226 lung.
Test [7] concerns SNB-75 CNS.
The test system of test [8] is HT29 colon.
Test [9] deals with M14 melanoma.
The subject of test [10] is IGROV1 ovarian.

“And” between values parts separate entries of the source, which are not always exact repeats. Identical values can stand only once.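 Test compounds were applied to cells in 96-well plates for 48 hours at 5 doses. GI50 marks 50% less growth. TGI is the concentration that stops growth completely.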

In the case of `Cc1cc(I)cc(CNCCN2CCOCC2)c1O`, the GI50 in test [1] was 67.8 µM; in test [2] it was > 100 µM; in [3], > 100 µM; in [4] it was 43.9 µM; in test [5], 92.8 µM; in test [6], > 100 µM. Further, the GI50 in test [7] is 75.6 µM; in test [8], > 100 µM; in test [9], 26.9 µM; in test [10] it was 67 µM. Moreover, the TGI in test [1], in test [2], in [3], in [4], in [5] and in [6] was > 100 µM each time. For the same compound, the TGI in test [7], in [8], in [9] and in [10] was > 100 µM each time.
In the case of `CN(C)c1ccc(/C=C(\C#N)c2ccccc2)cc1`, the GI50 in test [1] is 0.587 µM and 0.698 µM and 1.74 µM; in test [2], 0.272 µM and 0.398 µM and 0.365 µM; in [3] it was 0.378 µM and 0.499 µM and 0.538 µM; in [4] it was 1.31 µM and 3.24 µM and 1.62 µM; in test [5] it was 0.369 µM and 0.43 µM and 0.681 µM; in test [6], 4.7 µM and 13.3 µM and 24 µM. For the same compound, the GI50 in test [7] is 0.361 µM and 0.626 µM and 0.299 µM; in test [8] it was 0.33 µM and 0.352 µM and 0.347 µM; in test [9], 0.329 µM and 0.344 µM and 0.304 µM; in test [10], 0.599 µM and 1.81 µM. Further, the TGI in test [1] was > 100 µM; in test [2], 1.22 µM and 3.23 µM and 4.25 µM; in test [3] it was 55.4 µM and > 100 µM and 91.5 µM; in [4], 31.7 µM and 57.4 µM and > 100 µM; in test [6] it was > 100 µM; in test [7] it was > 100 µM. Besides, the TGI was 10.9 µM and 71.3 µM in test [8]; > 100 µM in [9]; > 100 µM in test [10].
For the compound `CC(C)n1nc(C#Cc2cccc(O)c2)c2c(N)ncnc21`, the GI50 in test [1] was 0.391 µM and 0.416 µM; in test [2], 1.32 µM and 1.7 µM; in [3] it was 2.83 µM and 2.95 µM; in test [4], 2.4 µM and 4.46 µM; in test [5] it was 0.627 µM; in [6], 3.81 µM and 1.37 µM. The GI50 in test [7] was 0.161 µM and 0.442 µM; in [8], 2.04 µM and 1.74 µM; in test [9] it was 0.693 µM and 0.397 µM; in test [10], 0.856 µM. Besides, the TGI in test [1] was 1.92 µM and 2.83 µM; in [2], 5.62 µM and 7.63 µM; in [3], 50 µM and 12.8 µM; in test [4], 27.4 µM and 21.5 µM; in [5] it was 5.33 µM and 4.55 µM; in [6] it was 21.1 µM and 6.02 µM. The TGI is 1.12 µM and 2.09 µM in test [7]; 50 µM and 19.4 µM in test [8]; 4.68 µM and 2.42 µM in test [9]; 2.24 µM in test [10].
Turning to `Cc1cc(Cl)ccc1NC(=O)CC1SC(=NC(=O)c2ccccc2Cl)NC1=O` (centres undefined), the TGI in test [1] is 44.6 µM; in test [2], 36.3 µM; in test [3], 30.1 µM; in test [4], > 100 µM; in test [5] it was 29 µM; in [6], 75 µM. The TGI in test [7] is 35 µM; in test [8], 45 µM; in test [9] it was 32 µM; in [10] it was > 100 µM.
For the compound `N#CC(C(=O)/C(=N/NC(=O)c1ccccc1O)C(C#N)c1ccc(Br)cc1)c1ccc(Br)cc1` (centres undefined), the TGI in test [1] is 26.1 µM; in [2] it was 26.4 µM; in [3], 23.7 µM; in test [4], 24.7 µM; in test [5], 27.7 µM; in test [6], 19.1 µM. Besides, the TGI in test [7] was 9.98 µM; in test [8], 33.9 µM; in test [9], 29 µM; in [10], 33.3 µM.
With `N#CCCN(C1=NN(C(=O)CC(=O)Nc2ccc(Cl)cc2)C(c2ccccc2)C1)c1ccc(Cl)cc1` (centres undefined), the TGI in test [1], in test [2], in [3], in [4], in test [5] and in test [6] was > 100 µM throughout. Moreover, the TGI in test [7], in test [8], in test [9] and in test [10] was > 100 µM in each case.
For `C[C@]12CCCN1CC1=NNC(=O)c3cc(F)cc4[nH]c2c1c34`, the GI50 in test [1] was 16 µM; in [2], 17.8 µM; in [3], 14.1 µM; in [4], 25.1 µM; in test [5], 21.9 µM; in test [6], 7.84 µM. The GI50 was 13.6 µM in [7], 19.2 µM in [8], 18.5 µM in [9] and 21.5 µM in test [10]. Further, the TGI in [1] was > 100 µM; in test [2], > 100 µM; in test [3] it was > 100 µM; in test [4], 91.6 µM; in test [5], 63.6 µM; in test [6], 67.7 µM. For the same compound, the TGI in test [7] is 35.9 µM; in test [8], > 100 µM; in [9] it was 59.6 µM; in test [10], > 100 µM.
On to `COc1ccc(C2CC(c3ccccc3)=NN2C(=O)c2cc(OC)c(OC)c(OC)c2)cc1O` (centres undefined), for which the GI50 in test [1] is 0.751 µM; in test [2], 0.326 µM; in [3], 0.383 µM; in test [4], 0.724 µM; in test [5] it was 0.335 µM; in [6], 1.29 µM. Further, the GI50 is 0.422 µM in test [7], 2.96 µM in test [8], 0.299 µM in test [9] and 0.498 µM in test [10]. The TGI was > 100 µM in test [1]; 3.99 µM in test [2]; 13.8 µM in test [3]; 4.08 µM in test [4]; 7.03 µM in test [5]; 21.3 µM in test [6]. Further, the TGI in test [7] is > 100 µM; in [8] it was 8.31 µM; in test [9], 3.99 µM; in test [10], > 100 µM.

These data come from PubChem BioAssay (NCI).
